Patent US20070105114A1, “Biomarkers of cyclin-dependent kinase modulation” (priority 2003, published 2007)
pIC50: −log10 of the molar value. Structures can show the parent of a compound that is named as a salt. Where two headings read alike, the source gives them in different places.

Assays:
[1] = system: mouse ortholog of W28729; experiment: Mouse ortholog of W28729 expression in PBMC of tumor mice; format: in vivo; settings: PBMC isolated from the tumor mice, compared with tumors
Description: At the minimum efficacious dose (MED) of 18 mg/kg/day, the induction was sustained for more than 6 hours. In an infusion regimen using the minimum efficacious dose of 40 mg/kg, gene induction was sustained for at least 16 hours. […] Treatment with an efficacious regimen results in >2 fold induction of the sequence for 6 hours or longer. […] In addition, these observations support the use of PBMC as a surrogate tissue for monitoring changes in gene expression, that result from treatment with the cdk2 inhibitor.

[2] = system: A2780 ovarian carcinoma cells; experiment: Clonogenic growth assay (colony formation); format: cell-based, human; settings: for pIC50 / IC90: Homo sapiens, A2780, A2780s Clonogenic assay; for pIC50: read-out: IC50, inhibition of colony formation; for IC90: read-out: IC90, inhibition of colony formation
Description: Clonogenic Growth Assay: The colony growth inhibition was measured for the A2780 ovarian carcinoma cells using a standard clonogenic assay. In this assay, 200 cells/well were seeded into 6-well tissue culture plates (Falcon™) (Becton, Dickinson and Company, Franklin Lakes, N.J., USA) and allowed to attach for 18 hours. Assay medium consisted of RPMI-1640 plus 10% fetal bovine serum. Cells were then treated in duplicate with a six concentration dose-response curve. The maximum concentration of DMSO never exceeded 0.25%. Cells were exposed to the cdk2 inhibitor for 4, 8, or 24 hours. The cdk2 inhibitor was then removed and the cells were washed with 2 volumes of PBS. The normal growth medium was then replaced. Colonies were fed with fresh media every third day. Colony number was scored on day 10-14 using a Optimax imaging station. The cdk2 inhibitor concentration required to inhibit 50% or 90% of colony formation (IC50 or IC90, respectively) was determined by non-linear regression analysis. The coefficient of variance (standard deviation/mean, n=3)=30%. Treatment of A2780 and PBMC was carried out as described above. The doses of the cdk2 inhibitor were derived from an understanding of the kinetics of tumor cell growth inhibition by the cdk2 inhibitor as assessed by proliferation and clonogenic assays (Table 3). […] A minimal exposure of 8 hours was required for effective inhibition of colony formation. The values obtained from the 24 hour clonogenic assay were in good agreement with the 72 hour proliferation assay.

[3] = system: W28729; experiment: W28729 expression in human ovarian carcinoma xenograft A2780 tumors in nude mice; format: in vivo, mouse
Description: The human ovarian carcinoma xenograft A2780s were maintained in Balb/c nu/nu nude mice. Tumors were propagated as subcutaneous (sc) transplants using tumor fragments obtained from donor mice. For the cdk2 inhibitor treatment, tumors were allowed to grow to the pre-determined size window of approximately 100-200 mg (tumors outside the range were excluded) and animals were evenly distributed to various treatment and control groups (n=6). Treatment of each animal was based on individual body weight. The cdk2 inhibitor was first dissolved in a mixture of Cremophor®/ethanol (50:50). One hour prior to administration, the cdk2 inhibitor was diluted with water so that the dosing solutions contained the specified excipient composition, i.e., Cremophor®/ethanol/water (1:1:8, v/v). The volume of all compounds injected was 0.01 ml/gm of mice. The cdk2 inhibitor was administered as a bolus injection intraperitoneal at doses of 36 and 18 mg/kg. Tumor and plasma were sampled at the time points of 4, 7, and 24 hour post treatment. Plasma sample was frozen immediately at −80° C. for pharmacokinetic analysis, and tumor sample was preserved in RNAase free buffer for pharmacogenomic analysis. The biomarker W28729 (SEQ ID NO: 1246) was selected as a preferred marker. A same-well multiplex real-time quantitative PCR assay on this biomarker with normalization control, house-keeping gene GAPDH, was developed using Taq-man MGB probes. Gene expression changes for W28729 were measured with real-time quantitative PCR assays in the following sample sets: A2780 human tumor cell line treated with 20 nM of cdk2 inhibitor for different durations (FIG. 3A), PBMC treated with 10n-M cdk2 inhibitor at 4 hours (FIG. 3B); and human ovarian carcinoma xenograft A2780 treated with cdk2 inhibitor at doses of 36 and 18 mg/kg for different durations (FIG. 3C). […] At the minimum efficacious dose (MED) of 18 mg/kg/day, the induction was sustained for more than 6 hours. In an infusion regimen using the minimum efficacious dose of 40 mg/kg, gene induction was sustained for at least 16 hours. […] Treatment with an efficacious regimen results in >2 fold induction of the sequence for 6 hours or longer. […] In addition, these observations support the use of PBMC as a surrogate tissue for monitoring changes in gene expression, that result from treatment with the cdk2 inhibitor.

[4] = system: A2780s; experiment: 72 hr XTT proliferation assay; format: cell-based; settings: Homo sapiens, 72 hr. XTT assay
Description: Treatment of A2780 and PBMC was carried out as described above. The doses of the cdk2 inhibitor were derived from an understanding of the kinetics of tumor cell growth inhibition by the cdk2 inhibitor as assessed by proliferation and clonogenic assays (Table 3). […] A minimal exposure of 8 hours was required for effective inhibition of colony formation. The values obtained from the 24 hour clonogenic assay were in good agreement with the 72 hour proliferation assay.

- pIC50 ([2]; 4 hr. exposure): 6.52
- IC90 ([2]; 4 hr. exposure): > 1000 nM
- pIC50 ([2]; 8 hr. exposure): 6.81
- IC90 ([2]; 8 hr. exposure): 303 nM
- pIC50 ([2]; 24 hr. exposure): 6.78
- IC90 ([2]; 24 hr. exposure): 208 nM
- pIC50 [4]: 7.02
- IC90 [4]: 170 nM
SMILES: CC(C)(C)c1cnc(CSc2cnc(NC(=O)C3CCNCC3)s2)o1 [cdk2 inhibitor, N-5-[[5-(1,1-Dimethylethyl)-2-oxazolyl]methyl]thio]-2-thiazolyl-4-piperidinecarboxamide, 0.5-L-tartaric acid salt]
- induction of the mouse ortholog sequence in PBMC [1]: strikingly similar pattern of induction
- minimal exposure required for effective inhibition of colony formation ([2]; A2780s): 8 h
- growth inhibition, dependence on exposure time ([2]; A2780s, proliferation and clonogenic assays): time dependent
- pattern of W28729 induction in the tumors ([3]; A2780 xenografts, bolus i.p. treatments): transient, dose-dependent manner
- duration of sustained W28729 induction ([3]; A2780 xenografts, bolus i.p., MED of 18 mg/kg/day): more than 6 hours
- duration of sustained gene induction ([3]; A2780 xenografts, infusion regimen, 40 mg/kg): at least 16 hours
- induction of the sequence ([3]; efficacious regimen, for 6 hours or longer): > 2 fold
- duration of W28729 gene induction versus dose ([3]; nude mice bearing A2780 xenografts, 36 and 18 mg/kg): dose-dependent prolongation of the duration of gene induction
- induction of W28729 in tumor ([3]; nude mice bearing A2780 xenografts, efficacious doses (36 and 18 mg/kg)): induction of W28729
